According to patent US20050197350A1, “Novel quinoline, tetrahydroquinazoline, and pyrimidine derivatives and methods of treatment related to the use thereof” (TAISHO PHARMACEUTICAL CO., LTD., priority 2003, published 2005):

What follows are compounds tested on MCH receptors (assay: MCH receptor activity class (method not given)). Settings: MCH receptor activity class 1-3 (percent of control at 10^-7 M or IC50).
In the case of `CCc1ccccc1NC(=O)NC[C@H]1CC[C@@H](Nc2cc(N(C)C)c3ccccc3n2)CC1` [compound 2377], the class is reported as 3 (Class 3 The value of percent of control at 10^−7 M was more than 60% or the value of IC50 was more than 200 nM.).

Same assay, conditions: MCH receptor; class by percent of control at 10^-7 M or IC50
For `Cc1ccc(F)cc1NC(=O)N[C@H]1CC[C@@H](Nc2nc3c(c(N(C)C)n2)CCCC3)CC1` [compound 1902], the class was 3 (Class 3 The value of percent of control at 10^−7 M was more than 60% or the value of IC50 was more than 200 nM.).
With `Cc1nn(-c2ccccc2)nc1C(=O)N[C@H]1CC[C@@H](Nc2cc(N(C)C)c3ccccc3n2)CC1` [compound 107, N-(cis-4-{[4-(dimethylamino)quinolin-2-yl]amino}cyclohexyl)-5-methyl-2-phenyl-2H-1,2,3-triazole-4-carboxamide] the class was 2 (Class 2: The value of percent of control at 10^−7 M was from 40% to 60% or the value of IC′50 was from 50 nM to 200 nM.).
With `CN(C)c1nc(N[C@H]2CC[C@@H](NC(=S)Nc3ccc(F)c(Cl)c3)CC2)nc2c1CCCC2` [compound 2071] the class was 3 (Class 3 The value of percent of control at 10^−7 M was more than 60% or the value of IC50 was more than 200 nM.).

Same assay, conditions: activity class 1-3: percent of control at 10^-7 M or IC50
In the case of `CN(C)c1ccnc(N[C@H]2CC[C@@H](NC(=O)OCCOCc3ccccc3)CC2)n1` [compound 1619], the class is reported as 3 (Class 3 The value of percent of control at 10^−7 M was more than 60% or the value of IC50 was more than 200 nM.).
`CN(C)c1ccnc(N[C@H]2CC[C@@H](CNCc3c(F)c(F)cc(F)c3F)CC2)n1` [compound 1533] was tested, and the class was 3 (Class 3 The value of percent of control at 10^−7 M was more than 60% or the value of IC50 was more than 200 nM.).
For `COc1cc(Cl)ccc1CNC[C@H]1CC[C@@H](Nc2nccc(N(C)C)n2)CC1` [compound 1536], the class was 3 (Class 3 The value of percent of control at 10^−7 M was more than 60% or the value of IC50 was more than 200 nM.).

Same assay, conditions: activity class per percent of control at 10^-7 M or IC50
With `CN(C)c1nc(N[C@H]2CC[C@@H](NC(=O)C(CC(=O)c3ccc(Cl)cc3)SCc3ccc(Cl)cc3)CC2)nc2c1CCCC2` (relative stereo) [compound 1017] the class was 3 (Class 3 The value of percent of control at 10^−7 M was more than 60% or the value of IC50 was more than 200 nM.).
For `CN(C)c1nc(N[C@H]2CC[C@@H](CNC(=O)c3ccc(-c4ccc(Cl)cc4[N+](=O)[O-])o3)CC2)nc2c1CCCC2` [compound 1064], the class was 3 (Class 3 The value of percent of control at 10^−7 M was more than 60% or the value of IC50 was more than 200 nM.).
`COc1ccc(CN[C@H]2CC[C@@H](Nc3cc(N(C)C)c4ccccc4n3)CC2)c(OC)c1` [compound 1094] was tested, and the class was 3 (Class 3 The value of percent of control at 10^−7 M was more than 60% or the value of IC50 was more than 200 nM.).

Same assay, conditions: class by percent of control at 10^-7 M or IC50
For `CN(C)c1nc(N[C@H]2CC[C@@H](NC(=O)Nc3cc(C(F)(F)F)ccc3F)CC2)nc2c1CCCC2` [compound 1859], the class was 3 (Class 3 The value of percent of control at 10^−7 M was more than 60% or the value of IC50 was more than 200 nM.).
For `COc1cccc(CC(=O)N[C@H]2CC[C@@H](Nc3nccc(N(C)C)n3)CC2)c1` [compound 285], the class was 3 (Class 3 The value of percent of control at 10^−7 M was more than 60% or the value of IC50 was more than 200 nM.).
`CC(C)Oc1ccc(CNC[C@H]2CC[C@@H](Nc3nc4c(c(N(C)C)n3)CCCC4)CC2)cc1` [compound 1398] was tested, and the class was 3 (Class 3 The value of percent of control at 10^−7 M was more than 60% or the value of IC50 was more than 200 nM.).
`CN(C)c1nc(N[C@H]2CC[C@@H](CNCc3ccsc3)CC2)nc2c1CCCC2` [compound 1425] was tested, and the class was 3 (Class 3 The value of percent of control at 10^−7 M was more than 60% or the value of IC50 was more than 200 nM.).
`CN(C)c1ccnc(N[C@H]2CC[C@@H](NC(=O)c3ccc(F)c(C(F)(F)F)c3)CC2)n1` [compound 324, N-(cis-4-{[4-(dimethylamino)pyrimidin-2-yl]amino}cyclohexyl)-4-fluoro-3-(trifluoromethyl)benzamide] was tested, and the class was 1 (Class 1: The value of percent of control at 10^−7 M was less than 40% or the value of IC50 was less than 50 nM.).
`COc1ccc(F)c(CNC[C@H]2CC[C@@H](Nc3cc(N(C)C)c4ccccc4n3)CC2)c1` [compound 1164] was tested, and the class was 3 (Class 3 The value of percent of control at 10^−7 M was more than 60% or the value of IC50 was more than 200 nM.).
For `Cc1cc(CNC[C@H]2CC[C@@H](Nc3nc4c(c(N(C)C)n3)CCCC4)CC2)cc(C)c1O` [compound 1382], the class was 2 (Class 2: The value of percent of control at 10^−7 M was from 40% to 60% or the value of IC′50 was from 50 nM to 200 nM.).
`CN(C)c1cc(N[C@H]2CC[C@@H](NC(=O)c3cn(Cc4ccccc4)c4ccccc34)CC2)nc2ccccc12` [compound 691] was tested, and the class was 3 (Class 3 The value of percent of control at 10^−7 M was more than 60% or the value of IC50 was more than 200 nM.).
With `CN(C)c1ccnc(N[C@H]2CC[C@@H](CNC(=O)c3ccc(Cl)s3)CC2)n1` [compound 929] the class was 3 (Class 3 The value of percent of control at 10^−7 M was more than 60% or the value of IC50 was more than 200 nM.).
`CC(C(=O)N[C@H]1CC[C@@H](Nc2cc(N(C)C)c3ccccc3n2)CC1)c1ccc(N2Cc3ccccc3C2=O)cc1` (relative stereo) [compound 710] was tested, and the class was 3 (Class 3 The value of percent of control at 10^−7 M was more than 60% or the value of IC50 was more than 200 nM.).
For `Cc1cccc(C(=O)NC[C@H]2CC[C@@H](Nc3nc4c(c(N(C)C)n3)CCCC4)CC2)c1C` [compound 672], the class was 3 (Class 3 The value of percent of control at 10^−7 M was more than 60% or the value of IC50 was more than 200 nM.).
For `Cc1cc(C(=O)NC[C@H]2CC[C@@H](Nc3nc4c(c(N(C)C)n3)CCCC4)CC2)c(C(F)(F)F)o1` [compound 632], the class was 1 (Class 1: The value of percent of control at 10^−7 M was less than 40% or the value of IC50 was less than 50 nM.).
`CN(C)c1cc(N[C@H]2CC[C@@H](NC(=O)C(Cc3ccccc3)c3ccccc3)CC2)nc2ccccc12` (relative stereo) [compound 678] was tested, and the class was 3 (Class 3 The value of percent of control at 10^−7 M was more than 60% or the value of IC50 was more than 200 nM.).
In the case of `CCOc1ccccc1CN[C@H]1CC[C@@H](Nc2nc3c(c(N(C)C)n2)CCCC3)CC1` [compound 1327], the class is reported as 3 (Class 3 The value of percent of control at 10^−7 M was more than 60% or the value of IC50 was more than 200 nM.).
In the case of `CN(C)c1ccnc(N[C@H]2CC[C@@H](CNC(=O)c3cccc(C(F)(F)F)c3F)CC2)n1` [compound 409], the class is reported as 3 (Class 3 The value of percent of control at 10^−7 M was more than 60% or the value of IC50 was more than 200 nM.).
With `CCCCc1ccc(NC(=O)N[C@H]2CC[C@@H](Nc3nccc(N(C)C)n3)CC2)c(C)c1` [compound 2255] the class was 3 (Class 3 The value of percent of control at 10^−7 M was more than 60% or the value of IC50 was more than 200 nM.).
With `COc1cc(Br)c(CNC[C@H]2CC[C@@H](Nc3nccc(N(C)C)n3)CC2)cc1OC` [compound 1312] the class was 2 (Class 2: The value of percent of control at 10^−7 M was from 40% to 60% or the value of IC′50 was from 50 nM to 200 nM.).
With `COc1cc(CC(=O)N[C@H]2CC[C@@H](Nc3nccc(N(C)C)n3)CC2)cc(OC)c1O` [compound 839] the class was 3 (Class 3 The value of percent of control at 10^−7 M was more than 60% or the value of IC50 was more than 200 nM.).

Same assay, conditions: class by percent of control at 10^−7 M or IC50
`Cc1nc(N[C@H]2CC[C@@H](NC(=O)c3cncc(Br)c3)CC2)nc(N(C)C)c1C` [compound 2857, 5-bromo-N-(cis-4-{[4-(dimethylamino)-5,6-dimethylpyrimidin-2-yl]amino}cyclohexyl)nicotinamide] was tested, and the class was 1 (Class 1: The value of percent of control at 10^−7 M was less than 40% or the value of IC50 was less than 50 nM.).
`Cc1nc(N[C@H]2CC[C@@H](NC(=O)c3cnccn3)CC2)nc(N(C)C)c1C` [compound 2826] was tested, and the class was 3 (Class 3 The value of percent of control at 10^−7 M was more than 60% or the value of IC50 was more than 200 nM.).
In the case of `Cc1cnc(N[C@H]2CC[C@@H](C(=O)N[C@H](C)c3ccccc3)CC2)nc1N(C)C` [compound 2771, cis-4-{[4-(dimethylamino)-5-methylpyrimidin-2-yl]amino}-N-[(1R)-1-phenylethyl]cyclohexanecarboxamide], the class is reported as 2 (Class 2: The value of percent of control at 10^−7 M was from 40% to 60% or the value of IC′50 was from 50 nM to 200 nM.).
`Cc1nc(N[C@H]2CC[C@@H](NC(=O)c3ccccn3)CC2)nc(N(C)C)c1C` [compound 2835] was tested, and the class was 3 (Class 3 The value of percent of control at 10^−7 M was more than 60% or the value of IC50 was more than 200 nM.).
`Cc1cnc(N[C@H]2CC[C@@H](C(=O)N[C@@H](C)c3ccc(F)cc3)CC2)nc1N(C)C` [compound 2774, cis-4-{[4-(dimethylamino)-5-methylpyrimidin-2-yl]amino}-N-[(1S)-1-(4-fluorophenyl)ethyl]cyclohexanecarboxamide] was tested, and the class was 2 (Class 2: The value of percent of control at 10^−7 M was from 40% to 60% or the value of IC′50 was from 50 nM to 200 nM.).
For `Cc1cnc(N[C@H]2CC[C@@H](CNC(=O)c3cccnc3Oc3ccc(Br)cc3)C2)nc1N(C)C` [compound 3012], the class was 2 (Class 2: The value of percent of control at 10^−7 M was from 40% to 60% or the value of IC′50 was from 50 nM to 200 nM.).
In the case of `Cc1cnc(N[C@H]2CC[C@@H](CNC(=O)c3ccc(OC(F)(F)F)cc3)CC2)nc1N(C)C` [compound 2700, N-[(cis-4-{[4-(dimethylamino)-5-methylpyrimidin-2-yl]amino}cyclohexyl)methyl]-4-(trifluoromethoxy)benzamide], the class is reported as 2 (Class 2: The value of percent of control at 10^−7 M was from 40% to 60% or the value of IC′50 was from 50 nM to 200 nM.).
For `Cc1cc(N(C)C)nc(N[C@H]2CC[C@@H](C(=O)NCc3ccc(F)c(F)c3)CC2)n1` [compound 2801, cis-N-(3,4-difluorobenzyl)-4-{[4-(dimethylamino)-6-methylpyrimidin-2-yl]amino}cyclohexanecarboxamide], the class was 1 (Class 1: The value of percent of control at 10^−7 M was less than 40% or the value of IC50 was less than 50 nM.).
